Among the data in patent publication US12024521B2, “Isoquinoline derivatives, methods of synthesis and uses thereof” (priority 2020, dated 2024) are IC50 values, retold here.

This experiment has as its system HIV-1 (NL4-3 RLuc reporter virus in MT-2 cells). In words: Inhibition of HIV-1 replication, MT-2 spreading infection assay. The format is cell-based. Particulars: Human immunodeficiency virus 1, NL43, MT2, 96 h, read-out: HIV activity (μM). The procedure: Inhibition of HIV-1 viral replication was assayed in a spreading infection using MT-2 cells and NL4-3 RLuc reporter virus. For dose-response curves, compounds were initially diluted with DMSO to 100-fold the starting concentration in a 96-well plate and subjected to a series of 3-fold dilutions in DMSO for a total of eight or nine dilutions. If a single compound concentration was tested, the compound was diluted to 100-fold the desired concentration in DMSO. Compounds were then diluted 50-fold with infection media prepared by diluting NL4-3 RLuc virus stock to 400 IU/100 ul with complete RPMI. Then, 100 ul of 50-fold-diluted compound was transferred to 20,000 MT-2 cells that were preceded in 96-well plates in 100 ul of complete RPMI for a final volume of 200 ul, followed by incubation at 37° C. for 96 h. The final MOI in infected plates was 0.02, and the final DMSO concentration in all wells was 1%. All assays were run with three replicates. For each replicate, one well received DMSO only, and one well received medium only for normalization and background correction. […] Plates were read on a luminescence plate reader (Synergy H1; BioTek Instruments, Inc.).

As for `COc1cc2c(c(OC)c1OCc1ccccc1)CCNC2/C=C/c1cc2c(cc1C)OCO2` (stereo not drawn) [Compound 6, 6-benzyloxy-5,7-dimethoxy-1-[(E)-2-(6-methyl-1,3-benzodioxol-5-yl)vinyl]-1,2,3,4-tetrahydroisoquinoline], the IC50 was found to be 0.37 µM.

Regarding `COc1c(OCc2ccccc2)cc2c(c1OC)C(/C=C/c1cc3c(cc1C)OCO3)NCC2` (stereo not drawn) [Compound 10, 6-benzyloxy-7,8-dimethoxy-1-[(E)-2-(6-methyl-1,3-benzodioxol-5-yl)vinyl]-1,2,3,4-tetrahydroisoquinoline], the IC50 stood at 2.5 µM.

With `COc1cc2c(cc1OCc1ccccc1)C(C)CNC2/C=C/c1cc2c(cc1C)OCO2` (stereo not drawn) [Compound 12, 6-Benzyloxy-7-methoxy-4-methyl-1-[(E)-2-(6-methyl-1,3-benzodioxol-5-yl)vinyl]-1,2,3,4-tetrahydroisoquinoline], the IC50 came out at 1.4 µM. Regarding `CCC1Cc2cc(OCc3ccccc3)c(OC)cc2C(/C=C/c2cc3c(cc2C)OCO3)N1` (stereo not drawn) [Compound 24, 6-Benzyloxy-7-methoxy-3-ethyl-1-[(E)-2-(6-methyl-1,3-benzodioxol-5-yl)vinyl]-1,2,3,4-tetrahydroisoquinoline], the IC50 was found to be 0.5 µM. Take `COc1cc2c(cc1OCc1ccccc1)CCN(O)C2/C=C/c1cc2c(cc1C)OCO2` (stereo not drawn) [Compound 36, 6-benzyloxy-2-hydroxy-7-methoxy-1-[(E)-2-(6-methyl-1,3-benzodioxol-5-yl)vinyl]-3,4-dihydro-1H-isoquinoline]: the IC50 was found to be 0.053 µM. Turning to `COc1cc2c(cc1OCc1ccccc1)C(Cl)CNC2/C=C/c1cc2c(cc1C)OCO2` (stereo not drawn) [Compound 61], the IC50 came out at 2.5 µM.
